Data set [1] deals with T1, Nuclear receptor subfamily 4 group A member 2 (Homo sapiens, UniProt P43354). The data set is described as follows: Activation of Nurr1 expressed in MN9D cells by luciferase reporter gene assay relative to control. The format is cell-based. Details: concentration or dose not given beside the values. Background: A reporter such as luciferase makes a cellular process visible.

The target of data set [2] is T1, Nuclear receptor subfamily 4 group A member 2. Nature of the data set: Activation of Nurr1 expressed in MN9D cells by luciferase reporter gene assay. The format is cell-based.
A short description of data set [3]: Bioavailability in mouse at 10 umol/kg, po. The format is ADME, organism-based. The settings on record: in vivo.

Bounds are passed on as bounds.

T1 sequence (P43354 whole entry): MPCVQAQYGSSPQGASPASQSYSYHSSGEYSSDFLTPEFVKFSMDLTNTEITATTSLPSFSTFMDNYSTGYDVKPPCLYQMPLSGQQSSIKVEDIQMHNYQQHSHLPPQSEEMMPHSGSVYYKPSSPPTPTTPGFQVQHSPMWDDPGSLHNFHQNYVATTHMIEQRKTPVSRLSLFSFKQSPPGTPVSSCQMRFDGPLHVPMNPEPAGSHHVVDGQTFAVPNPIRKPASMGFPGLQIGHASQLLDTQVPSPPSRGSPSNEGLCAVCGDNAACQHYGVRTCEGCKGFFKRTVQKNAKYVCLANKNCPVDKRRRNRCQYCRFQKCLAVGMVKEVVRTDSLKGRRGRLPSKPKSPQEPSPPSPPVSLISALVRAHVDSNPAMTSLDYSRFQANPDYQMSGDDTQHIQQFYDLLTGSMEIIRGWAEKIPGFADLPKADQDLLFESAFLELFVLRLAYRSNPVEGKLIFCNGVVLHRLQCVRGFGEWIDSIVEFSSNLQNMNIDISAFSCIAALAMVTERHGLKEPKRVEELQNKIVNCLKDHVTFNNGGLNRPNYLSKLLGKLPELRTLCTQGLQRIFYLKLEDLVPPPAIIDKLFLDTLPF

In general, EC50 refers to the concentration needed to bring the measured effect to its halfway point. Take `COc1ccc(-c2cc3onc(-c4ccccc4)c3c(=O)n2C)c(OC)c1`: the Activity in data set [1] came out at 202%. Also, the concentration for a half-maximal effect (EC50) in data set [2] was 0.0592 µM. Regarding `Cn1c(-c2ccc(Oc3ccccc3)cc2)cc2onc(-c3ccccc3)c2c1=O`, in data set [2], the EC50 is over 2 µM. In the case of `Cc1cc2onc(-c3ccccc3)c2c(=O)n1C`, the EC50 in data set [2] was over 2 µM. On to `Cn1c(-c2ccncc2)cc2onc(-c3ccccc3)c2c1=O`, for which the Activity in data set [1] came out at 198%. In data set [2], this compound showed an EC50 of 0.13 µM. The bioavailability is dose-corrected exposure relative to a reference, in per cent. `COCCOCc1ccc(-c2cc3onc(-c4ccccc4)c3c(=O)n2C)cc1` returned a bioavailability in data set [3] of 95%. Besides, in data set [1], the Activity stood at 208%. Further, it took 0.0039 µM to reach a half-maximal effect in data set [2] (EC50). Take `O=c1[nH]c(-c2ccccc2)cc2onc(-c3ccccc3)c12` [ISOXAZOLOPYRIDINONE]: the Activity in data set [1] is 207%. Besides, the 50% effective concentration (EC50) in data set [2] was determined as 0.0775 µM.

For the compound `COc1ccc(-c2cc3onc(-c4ccccc4)c3c(=O)n2C)cc1`, the Activity in data set [1] is 185%. Further, in data set [2], a half-maximal response (EC50) required 0.0041 µM.

`Cn1c(-c2ccc(COCCO)cc2)cc2onc(-c3ccccc3)c2c1=O`: the Activity in data set [1] was determined as 226%. In addition, the EC50 in data set [2] was 0.0035 µM. On the same counts, the results for `Cn1c(-c2ccc3c(c2)OCO3)cc2onc(-c3ccccc3)c2c1=O` are 202% and 0.0008 µM. In data set [1], `CN1CCN(Cc2ccc(-c3cc4onc(-c5ccccc5)c4c(=O)n3C)cc2)CC1` gave an Activity of 163%. Moreover, the 50% effective concentration (EC50) in data set [2] turned out to be 0.0319 µM. For `CC(C)OCCOCc1ccc(-c2cc3onc(-c4ccccc4)c3c(=O)n2C)cc1`, in that order: 173% and 0.113 µM.

Compound `CN(C)Cc1ccc(-c2cc3onc(-c4ccccc4)c3c(=O)n2C)cc1` showed an Activity in data set [1] of 171%. The compound also displayed an EC50 in data set [2] of 0.026 µM.

The values above are taken from ChEMBL document CHEMBL1138376, “Identification of a series of highly potent activators of the Nurr1 signaling pathway” (Bioorg Med Chem Lett, 2007).
